Molecules are shown by their SMILES.

The data set is described as follows: gradient 5% acetonitrile 3 min, to 50% in 2 min, to 85% in 15 min, held 3 min, 100 µL/min. To be noted: column: Zorbax Extend-C18 2.1 x 50 mm; eluents: water / acetonitrile, 0.1% formic acid. An outline of the steps:
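Pure standards were run in mixtures of ~100 molecules by HPLC coupled to a quadrupole time-of-flight mass spectrometer. The column was a Zorbax Extend-C18 (2.1 × 50 mm, 1.8 μm) at 100 μL/min, with water and acetonitrile each containing 0.1% formic acid, in positive and negative ionization mode. Dead and dwell volumes were 40 μL and 900 μL. Retention time was taken from computationally picked adduct peaks, each manually inspected, with data collected over 3 months.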
Compound `O=C(NCc1nc(-c2cccc(-c3ccn[nH]3)c2)no1)c1ccccc1` registered an RP-LC retention time of 741 s.

With `O=C(NCCc1c[nH]c2ccccc12)C1COc2ccccc2O1` (stereo not given), the RP-LC retention time was 866 s.

In turn, `Cn1cccc1-c1cc2n(n1)CCCN2C(=O)CCC(=O)N1CCc2ccccc2C1` showed an RP-LC retention time of 809 s.

As for `CCN1C(=O)c2cccnc2Sc2cc(NC(=O)c3ccc4c(c3)OCO4)ccc21`, the RP-LC retention time was 802 s.

`CC(C)c1nncn1C1CCN(S(=O)(=O)c2cccc(F)c2)CC1` had an RP-LC retention time of 707 s.

`COCCN(CCOC)c1ncnc2c1cnn2-c1ccc(C)cc1C` showed an RP-LC retention time of 902 s.

`CN1C(=O)c2cc(S(=O)(=O)Nc3cc(F)cc(F)c3)ccc2Oc2cccnc21` returned an RP-LC retention time of 936 s.

`Cc1nc(CSCC(=O)Nc2ccc(Cl)cc2)cs1` came in with an RP-LC retention time of 778 s.

On to `CCc1ccc(-c2cc3c(=O)n(CC(=O)NCCCN4CCCC4=O)nc(C)n3n2)cc1`, for which the RP-LC retention time worked out at 812 s.

`Fc1cccc(Cn2cc(-c3noc(C4CCCC4)n3)nn2)c1`: the RP-LC retention time was found to be 1010 s.

In the case of `CC(C)C(=O)Nc1cnc(-c2ccc(F)cc2)nc1`, the RP-LC retention time was determined as 861 s.

For the compound `CCNC(=O)c1c(-c2cccc(F)c2)noc1C`, the RP-LC retention time was found to be 797 s.

In the case of `O=C(CN1CCN(c2ccc(Cl)cc2)C1=O)N1CCN(C(=O)c2ccco2)CC1`, the RP-LC retention time stood at 695 s.

In turn, `Cc1cc(C(=O)N2CCCCC2)c2c(=O)n(CC(=O)Nc3cccc(C#N)c3)c(=O)n(C)c2n1` had an RP-LC retention time of 791 s.

`CCCC(NC(=O)CCc1ccc(OC)cc1)C(=O)Nc1nc2ccccc2[nH]1` (stereo not given): the RP-LC retention time came out at 713 s.

In the case of `COc1ccc(C(=O)NC2CCN(c3ccc(F)cc3)C2=O)cc1F` (stereo not given), the RP-LC retention time came out at 806 s.

In turn, `COc1cccc(CNC(=O)C2(C)CCCN(C(=O)Nc3ccc(F)cc3)C2)c1` (stereo not given) showed an RP-LC retention time of 858 s.

Regarding `CN(CCc1ccccn1)c1ccc2c(c1)C(=O)c1ccccc1-2`, the RP-LC retention time is 662 s.

The compound `COCC(=O)NC1CCC12CCN(C(=O)C1CC1)CC2` (stereo not given) gave an RP-LC retention time of 619 s.

The compound `Cc1noc(-c2ccc(NC(=O)c3cn(C)nn3)cc2)n1` yielded an RP-LC retention time of 658 s.

In the case of `N#Cc1ccc(-c2csc(NC(=O)c3sc4ccccc4c3Cl)n2)cc1`, the RP-LC retention time turned out to be 1240 s.

With `Cc1cnc(C2CNC2)n1Cc1ccccc1`, the RP-LC retention time was determined as 589 s.

`COCCNC(=O)N(C)CCc1noc(COc2ccc(Cl)cc2)n1` yielded an RP-LC retention time of 747 s.

The compound `Cc1cccc(C(=O)N2CCC3(C2)C(=O)Nc2ccccc23)c1` (stereo not given) had an RP-LC retention time of 734 s.

In turn, `Cc1ccc(C)c(NC(=O)c2cc(C)nn2-c2ccccc2)c1` yielded an RP-LC retention time of 916 s.

Take `Cc1sc(C)c(S(=O)(=O)N2CCCCCC2)c1-c1cc(C(F)(F)F)on1`: the RP-LC retention time came out at 1200 s.

As to `Clc1ccc(OCc2nc(-c3cccc(-c4ccn[nH]4)c3)no2)cc1`, the RP-LC retention time turned out to be 1010 s.

Regarding `COc1cccc(C(=O)CC2(O)C(=O)Nc3c(C)cccc32)c1` (stereo not given), the RP-LC retention time was determined as 728 s.

For `CC(C)CC(=O)N1CCc2cc(CNC(=O)c3ccnn3C)ccc21`, the RP-LC retention time is 754 s.

Compound `COC(=O)c1ccc2c(=O)n(-c3ccccc3)c(N3CCC(C)CC3)nc2c1` registered an RP-LC retention time of 1210 s.

`COc1ccc(C2(C(=O)N3CCn4c(C)nnc4C3)CC2)cc1` gave an RP-LC retention time of 584 s.

Take `CC(C)c1noc(C2CCCCN2Cc2cc(F)cc(F)c2)n1` (stereo not given): the RP-LC retention time was found to be 1170 s.

In turn, `CCCn1ccc2sc(C)c(C(=O)NCc3ccc(C)cc3)c2c1=O` displayed an RP-LC retention time of 948 s.

With `O=C(NCCc1c[nH]c2ccccc12)c1ccc(N2CCCC2)c(S(=O)(=O)N2CCCC2)c1`, the RP-LC retention time worked out at 979 s.

`CC(C)n1c2ccccc2c2nnc(SCC(=O)Nc3nc(-c4ccccc4)cs3)nc21` came in with an RP-LC retention time of 1040 s.

Regarding `Cn1nc(-c2nc(Cc3ccccc3)no2)c2c1CCN(C(=O)C(C)(C)C)C2`, the RP-LC retention time amounted to 937 s.

The compound `Cc1ccc(C)c(-c2csc(NC(=O)c3sc(-c4ccccc4)nc3C)n2)c1` displayed an RP-LC retention time of 1350 s.

As for `O=C1COc2ccc(S(=O)(=O)N3CCC(C(=O)Nc4ccc(F)cc4F)CC3)cc2N1`, the RP-LC retention time is 763 s.

In the case of `Cc1ccc(NC(=O)N2C[C@H](c3nc(-c4ccncc4)no3)[C@@H](C)C2)cc1`, the RP-LC retention time amounted to 795 s.

For the compound `O=C(NC1(c2nc(-c3cccnc3)no2)CCCCC1)c1ccc(Br)cc1`, the RP-LC retention time was determined as 1010 s.

As for `Cc1cc(C)n(-c2cc(Nc3ccccc3)ncn2)n1`, the RP-LC retention time was 1010 s.

On to `Cc1cc(C)n(-c2ccc(C(=O)NCc3ccc(Cl)cc3)cn2)n1`, for which the RP-LC retention time was 990 s.

In turn, `CCc1noc(NC(C)=O)c1-c1ccc(C)c(S(=O)(=O)Nc2ccc(C)c(C)c2)c1` registered an RP-LC retention time of 897 s.

Take `CC(C)n1c(N2CCN(C(=O)c3c(F)cccc3F)CC2)cc(=O)n(C(C)C)c1=O`: the RP-LC retention time was 814 s.

`CNc1cccnc1OC1CCN(Cc2ccccn2)C1` (stereo not given): the RP-LC retention time came out at 577 s.

Consider `CCc1c2c(nc3sc(C(=O)NCC4CCCO4)c(N)c13)CC(C)(C)CC2=O` (stereo not given), for which the RP-LC retention time was determined as 836 s.

In turn, `COc1ccc(NC(=O)N2CC3CCCN3c3ccccc32)cc1` (stereo not given) returned an RP-LC retention time of 985 s.

`Cn1cnc(S(=O)(=O)N2CCC(Oc3ccc(-c4noc(C5CC5)n4)cc3)C2)c1` (stereo not given) registered an RP-LC retention time of 788 s.

As to `O=C(NCc1ccccc1)c1cn(-c2ccc(-c3nc(C4CC4)no3)cn2)cn1`, the RP-LC retention time stood at 915 s.

Turning to `CN1CC(=O)N(CC(=O)Nc2ccc(-c3nc4ccccc4[nH]3)cc2)c2ccccc2C1=O`, the RP-LC retention time turned out to be 607 s.

In turn, `COc1ccc(OC)c(NC(=O)N2CCC(n3c(C(F)(F)F)nc4cccnc43)CC2)c1` registered an RP-LC retention time of 895 s.

`Cc1ccc(NC(=O)N2CCC(n3c(-c4ccco4)nc4cccnc43)C2)cc1Cl` (stereo not given): the RP-LC retention time came to 806 s.

As to `Clc1cc(Br)ccc1-c1ccc(CNCc2cccnc2)o1`, the RP-LC retention time turned out to be 664 s.

`COc1cccc(-c2ccc(SCC(=O)Nc3ccccc3C(F)(F)F)nn2)c1` gave an RP-LC retention time of 912 s.

Regarding `O=C1CCCN1CCCN1C(=O)[C@H]2CN(Cc3cccc(F)c3F)C[C@H]2C1=O`, the RP-LC retention time amounted to 625 s.

For `CCOC(=O)c1ccc(NC(=O)CSc2cc(N3CCCC3)ncn2)cc1`, the RP-LC retention time amounted to 828 s.

As for `O=C([C@@H]1C[C@H](F)CN1C(=O)c1ccco1)N1CCCCC1`, the RP-LC retention time came out at 626 s.

For the compound `COc1ccc(-n2ncc3c(=O)n(Cc4nc(-c5cccc(Br)c5)no4)cnc32)cc1`, the RP-LC retention time was 1110 s.

Compound `COc1cccc(NC(=O)Nc2nccn(-c3ccc(F)cc3)c2=O)c1` yielded an RP-LC retention time of 898 s.

With `CC1=C(c2ccc(Cl)cc2)S(=O)(=O)N=C1N1CCC(C(=O)NC(C)C)CC1`, the RP-LC retention time was found to be 779 s.

As for `CCOC(=O)c1nc(N2CCN(c3cccc(OC)c3)CC2)c2c(C)noc2n1`, the RP-LC retention time was determined as 960 s.

As to `CCS(=O)(=O)N1CCCN(C2=NS(=O)(=O)C(c3ccc(C)cc3)=C2C)CC1`, the RP-LC retention time was found to be 827 s.

Regarding `CCOC(=O)c1c(C)[nH]c(C(=O)N2CCCC(C(=O)NCCN3CCCCC3)C2)c1C` (stereo not given), the RP-LC retention time stood at 620 s.

`COc1ccc(CCC(=O)N2CCC(C(=O)NCCc3csc(-c4cccs4)n3)CC2)cc1`: the RP-LC retention time is 826 s.

Compound `CCn1cc(CC(=O)NCC2CCCCC2)c2cccnc21` yielded an RP-LC retention time of 783 s.

`COc1nn(C)cc1C(=O)NCC(O)c1ccc(C(F)(F)F)cc1` (stereo not given) showed an RP-LC retention time of 669 s.

`CCOC(=O)c1ccc(NS(=O)(=O)c2cc3n(c2)CCN(C)C3=O)cc1` came in with an RP-LC retention time of 702 s.

Compound `O=C(NC1CCCCCC1)C1CCN(c2cncnc2N2CCCCC2)CC1` came in with an RP-LC retention time of 712 s.

Compound `O=C(c1nccc2ccccc12)N1CCc2cc(-c3ccno3)ccc21` showed an RP-LC retention time of 1000 s.

`Cc1nc(C)c(C(=O)N2CCCCCNC(=O)[C@@H]3CCC[C@@H]32)s1` had an RP-LC retention time of 638 s.

Consider `Cc1nc(-n2nc(C)c(CC(=O)N3CCCCCC3)c2C)sc1C`, for which the RP-LC retention time is 1010 s.

As to `Cc1ccc(-c2cn3cccc(C)c3n2)cc1NS(=O)(=O)c1ccc(Br)cc1`, the RP-LC retention time is 737 s.

In turn, `CCN(CC)c1nc2cc(C(=O)OC)ccc2c(=O)n1Cc1ccc(F)cc1` had an RP-LC retention time of 1180 s.

The compound `O=c1ccc(N2CCCN(S(=O)(=O)c3ccc(F)c(Cl)c3)CC2)nn1-c1ccccc1` yielded an RP-LC retention time of 911 s.

The compound `Cc1ccc(C2=NC(c3ccc([N+](=O)[O-])cc3)SC(N3CCOCC3)=N2)cc1` (stereo not given) displayed an RP-LC retention time of 642 s.

`Cc1ccc(-c2csc3c(=O)n(CC(=O)NC4CCCC4)cnc23)cc1`: the RP-LC retention time was 912 s.

`COc1ccc(NC(=O)C2CCN(S(=O)(=O)c3cc(-c4noc(C)n4)cs3)CC2)cc1OC` showed an RP-LC retention time of 814 s.

As for `COC(=O)c1cnc2nc(C)ccc2c1Nc1cccc(F)c1`, the RP-LC retention time stood at 673 s.

`CC(C)N1C(=O)c2cccnc2Sc2cc(NC(=O)C3CC3)ccc21` registered an RP-LC retention time of 733 s.

The compound `COc1ccc(NC(=O)N2CCN(c3cnn4c(C)nnc4c3)CC2)cc1` had an RP-LC retention time of 594 s.

Source of the values: the METLIN SMRT retention time set (Domingo-Almenara et al. 2019).
